According to ChEMBL document CHEMBL1154288, “The discovery and unique pharmacological profile of RO4938581 and RO4882224 as potent and selective GABAA alpha5 inverse agonists for the treatment of cognitive dysfunction” (Bioorg Med Chem Lett, 2009):
Converted amounts (≈) assume the structure as drawn.

How the values were obtained:
[1] = biological target: GABA A receptor alpha-5/beta-3/gamma-2 (Rattus norvegicus) (UniProt P18508+P19969+P63079); assay: Inverse agonist activity at rat GABA alpha-5-beta-3-gamma-2 receptor expressed in HEK293 cells by electrophysiology assay relative to GABA; assay type: functional, cell-based
[2] = Selectivity ratio of Ki for cloned human GABA alpha-1-beta-3-gamma-2 receptor expressed in insect SF9 cells to Ki for cloned human GABA alpha-5-beta-3-gamma-2 receptor expressed in insect SF9 cells
[3] = Selectivity ratio of Ki for cloned human GABA alpha-2-beta-3-gamma-2 receptor expressed in insect SF9 cells to Ki for cloned human GABA alpha-5-beta-3-gamma-2 receptor expressed in insect SF9 cells
[4] = Selectivity ratio of Ki for cloned human GABA alpha-3-beta-3-gamma-2 receptor expressed in insect SF9 cells to Ki for cloned human GABA alpha-5-beta-3-gamma-2 receptor expressed in insect SF9 cells
[5] = biological target: T1, GABA-A receptor; alpha-5/beta-3/gamma-2 (Homo sapiens, UniProt P18507+P28472+P31644); assay: Displacement of [3H]Flumazenil from human GABA alpha-5-beta-3-gamma-2 receptor expressed in insect SF9 cells
T1 sequence (P18507 whole entry): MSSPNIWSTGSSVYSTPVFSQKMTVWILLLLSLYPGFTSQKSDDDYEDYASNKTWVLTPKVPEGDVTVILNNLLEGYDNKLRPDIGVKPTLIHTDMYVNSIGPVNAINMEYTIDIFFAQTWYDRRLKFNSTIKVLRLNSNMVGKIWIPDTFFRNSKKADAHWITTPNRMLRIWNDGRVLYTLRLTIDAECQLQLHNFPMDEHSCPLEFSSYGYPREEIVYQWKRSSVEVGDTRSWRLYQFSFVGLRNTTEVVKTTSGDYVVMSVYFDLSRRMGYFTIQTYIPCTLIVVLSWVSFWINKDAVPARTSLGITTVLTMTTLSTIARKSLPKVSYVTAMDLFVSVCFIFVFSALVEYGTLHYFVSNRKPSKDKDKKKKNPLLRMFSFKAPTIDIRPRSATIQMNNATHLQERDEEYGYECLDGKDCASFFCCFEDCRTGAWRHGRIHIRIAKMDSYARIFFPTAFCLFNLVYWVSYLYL
T1 sequence (P28472 whole entry): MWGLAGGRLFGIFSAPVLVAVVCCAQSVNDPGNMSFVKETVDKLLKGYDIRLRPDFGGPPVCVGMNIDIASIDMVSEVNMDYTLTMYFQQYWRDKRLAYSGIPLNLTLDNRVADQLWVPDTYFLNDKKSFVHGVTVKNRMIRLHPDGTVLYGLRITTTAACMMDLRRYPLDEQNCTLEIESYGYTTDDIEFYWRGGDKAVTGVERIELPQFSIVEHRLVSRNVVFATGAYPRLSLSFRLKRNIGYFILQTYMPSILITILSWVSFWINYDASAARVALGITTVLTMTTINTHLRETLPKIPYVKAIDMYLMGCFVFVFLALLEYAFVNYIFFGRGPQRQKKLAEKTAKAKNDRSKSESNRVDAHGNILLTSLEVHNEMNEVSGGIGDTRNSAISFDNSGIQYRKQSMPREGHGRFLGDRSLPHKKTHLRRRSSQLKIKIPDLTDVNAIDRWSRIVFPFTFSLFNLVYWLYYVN
T1 sequence (P31644 whole entry): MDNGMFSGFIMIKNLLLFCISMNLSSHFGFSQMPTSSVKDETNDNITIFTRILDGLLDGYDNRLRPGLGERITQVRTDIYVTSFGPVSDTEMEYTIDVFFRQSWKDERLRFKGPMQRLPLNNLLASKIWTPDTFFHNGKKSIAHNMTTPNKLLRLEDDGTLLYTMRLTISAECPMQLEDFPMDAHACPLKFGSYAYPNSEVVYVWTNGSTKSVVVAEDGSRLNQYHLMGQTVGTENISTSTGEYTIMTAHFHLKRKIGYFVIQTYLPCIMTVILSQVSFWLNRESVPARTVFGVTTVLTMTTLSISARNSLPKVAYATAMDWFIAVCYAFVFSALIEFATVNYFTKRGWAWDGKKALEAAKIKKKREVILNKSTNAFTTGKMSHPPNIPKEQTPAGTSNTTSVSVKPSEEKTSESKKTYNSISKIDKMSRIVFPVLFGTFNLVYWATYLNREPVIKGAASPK

[6] = Permeability by PAMPA; assay type: ADME; conditions: read-out: permeability
[7] = biological target: T2, GABA-A receptor; alpha-1/beta-3/gamma-2 (Homo sapiens, UniProt P14867+P18507+P28472); assay: Displacement of [3H]Flumazenil from cloned human GABA alpha-1-beta-3-gamma-2 receptor expressed in HEK293 cells; assay type: cell-based
T2 sequence (P14867 whole entry): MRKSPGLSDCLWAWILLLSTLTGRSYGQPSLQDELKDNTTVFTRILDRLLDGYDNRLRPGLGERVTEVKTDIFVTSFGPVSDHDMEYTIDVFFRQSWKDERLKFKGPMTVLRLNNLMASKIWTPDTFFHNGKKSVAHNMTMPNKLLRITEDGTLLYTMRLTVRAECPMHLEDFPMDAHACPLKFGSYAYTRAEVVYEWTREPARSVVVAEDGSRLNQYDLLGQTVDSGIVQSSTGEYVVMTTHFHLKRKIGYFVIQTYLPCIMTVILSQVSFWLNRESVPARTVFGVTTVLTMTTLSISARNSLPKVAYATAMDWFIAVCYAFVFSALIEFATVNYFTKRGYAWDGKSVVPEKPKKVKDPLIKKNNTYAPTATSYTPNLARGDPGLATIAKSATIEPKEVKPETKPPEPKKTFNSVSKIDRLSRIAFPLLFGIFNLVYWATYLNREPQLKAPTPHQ
T2 sequence (P18507 whole entry): T1 sequence (P18507 whole entry)
T2 sequence (P28472 whole entry): T1 sequence (P28472 whole entry)

[8] = biological target: T3, GABA-A receptor; alpha-3/beta-3/gamma-2 (Homo sapiens, UniProt P18507+P28472+P34903); assay: Displacement of [3H]Flumazenil from cloned human GABA alpha-3-beta-3-gamma-2 receptor expressed in HEK293 cells; assay type: cell-based
T3 sequence (P18507 whole entry): T1 sequence (P18507 whole entry)
T3 sequence (P28472 whole entry): T1 sequence (P28472 whole entry)
T3 sequence (P34903 whole entry): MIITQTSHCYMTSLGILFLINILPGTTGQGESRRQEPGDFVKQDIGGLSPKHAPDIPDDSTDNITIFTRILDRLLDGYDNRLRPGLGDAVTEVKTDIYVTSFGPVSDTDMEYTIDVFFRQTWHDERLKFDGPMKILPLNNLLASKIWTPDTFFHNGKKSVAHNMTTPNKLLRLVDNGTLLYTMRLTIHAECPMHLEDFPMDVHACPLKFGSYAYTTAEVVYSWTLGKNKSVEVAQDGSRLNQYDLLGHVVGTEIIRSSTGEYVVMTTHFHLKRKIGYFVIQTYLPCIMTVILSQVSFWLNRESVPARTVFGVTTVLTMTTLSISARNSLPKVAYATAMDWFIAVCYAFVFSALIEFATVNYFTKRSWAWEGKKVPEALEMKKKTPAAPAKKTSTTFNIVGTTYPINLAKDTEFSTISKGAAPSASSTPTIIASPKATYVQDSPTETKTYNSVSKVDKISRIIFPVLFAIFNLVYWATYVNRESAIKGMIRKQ

[9] = biological target: GABA A receptor alpha-2/beta-2/gamma-2 (Rattus norvegicus) (UniProt P18508+P23576+P63138); assay: Inverse agonist activity at rat GABA alpha-2-beta-3-gamma-2 receptor expressed in HEK293 cells by electrophysiology assay relative to GABA; assay type: functional, cell-based
[10] = biological target: T4, GABA-A receptor; alpha-2/beta-3/gamma-2 (Homo sapiens, UniProt P18507+P28472+P47869); assay: Displacement of [3H]Flumazenil from cloned human GABA alpha-2-beta-3-gamma-2 receptor expressed in HEK293 cells; assay type: cell-based
T4 sequence (P18507 whole entry): T1 sequence (P18507 whole entry)
T4 sequence (P28472 whole entry): T1 sequence (P28472 whole entry)
T4 sequence (P47869 whole entry): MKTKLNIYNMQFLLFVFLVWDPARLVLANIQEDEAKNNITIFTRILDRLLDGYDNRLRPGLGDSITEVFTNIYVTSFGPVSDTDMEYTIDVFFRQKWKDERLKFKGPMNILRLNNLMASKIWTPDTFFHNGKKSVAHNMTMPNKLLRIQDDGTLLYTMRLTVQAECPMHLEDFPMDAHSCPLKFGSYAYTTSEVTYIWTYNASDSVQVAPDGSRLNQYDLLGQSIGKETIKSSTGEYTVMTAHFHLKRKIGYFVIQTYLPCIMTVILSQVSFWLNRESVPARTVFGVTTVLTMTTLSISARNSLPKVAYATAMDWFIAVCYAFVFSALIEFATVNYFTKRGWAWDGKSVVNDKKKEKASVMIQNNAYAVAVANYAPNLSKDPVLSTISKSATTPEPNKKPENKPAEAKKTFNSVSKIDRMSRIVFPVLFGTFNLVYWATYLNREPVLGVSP

[11] = Oral bioavailability in rat; assay type: ADME, organism-based; conditions: in vivo
[12] = biological target: T1, GABA-A receptor; alpha-5/beta-3/gamma-2; assay: Displacement of [3H]Flumazenil from cloned human GABA alpha-5-beta-3-gamma-2 receptor expressed in HEK293 cells; assay type: cell-based
[13] = Clearance in rat; assay type: ADME, organism-based; conditions: in vivo
[14] = Lipophilicity, log D at pH 7.4; assay type: physicochemical; conditions: buffer
[15] = biological target: Gamma-aminobutyric acid receptor subunit alpha-3 (Rattus norvegicus) (UniProt P20236); assay: Inverse agonist activity at rat GABA alpha-3-beta-3-gamma-2 receptor expressed in HEK293 cells by electrophysiology assay relative to GABA; assay type: functional, cell-based
[16] = Solubility by lypophlisation solubility assay; assay type: physicochemical
[17] = Half life in rat; assay type: ADME, organism-based; conditions: in vivo
[18] = Volume of distribution at steady state in rat; assay type: ADME, organism-based; conditions: in vivo, read-out: Vdss
[19] = biological target: GABA-A receptor; alpha-1/beta-2/gamma-2 (Rattus norvegicus) (UniProt P18508+P62813+P63138); assay: Inverse agonist activity at rat GABA alpha-1-beta-3-gamma-2 receptor expressed in HEK293 cells by electrophysiology assay relative to GABA; assay type: functional, cell-based

Sequence of Gamma-aminobutyric acid receptor subunit alpha-3 (Rattus norvegicus) (P20236 whole entry): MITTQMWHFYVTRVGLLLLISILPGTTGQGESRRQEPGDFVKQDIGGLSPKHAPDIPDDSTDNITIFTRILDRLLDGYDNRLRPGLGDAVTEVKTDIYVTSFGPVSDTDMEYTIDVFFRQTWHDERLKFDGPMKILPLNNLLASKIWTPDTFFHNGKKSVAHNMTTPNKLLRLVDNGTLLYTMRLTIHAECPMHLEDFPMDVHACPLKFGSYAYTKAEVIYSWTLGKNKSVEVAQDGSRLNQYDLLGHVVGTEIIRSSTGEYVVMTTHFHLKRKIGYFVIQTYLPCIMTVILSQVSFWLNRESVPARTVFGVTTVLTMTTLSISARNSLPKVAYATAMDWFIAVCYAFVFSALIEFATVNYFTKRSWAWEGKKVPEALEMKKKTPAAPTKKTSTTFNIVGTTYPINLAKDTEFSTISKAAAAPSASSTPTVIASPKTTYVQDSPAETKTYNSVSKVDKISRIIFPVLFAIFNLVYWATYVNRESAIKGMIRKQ

SMILES | Efficacy [1] | Ratio Ki [2] | Ratio Ki [3] | Ratio Ki [4] | Ki [5] | further results
N#Cc1ncn2c1Cn1ncnc1-c1cc(Cl)ccc1-2 | -31% | 7 | 11 | 9 | 6.4 nM | –
Fc1ccc2c(c1)-c1ncnn1Cc1cncn1-2 | -45% | 12 | 4 | 3 | 10 nM | –
Fc1ccc2c(c1)-c1ncnn1Cc1c(Cl)ncn1-2 | -33% | 3 | 4 | 3 | 0.3 nM | –
CCC(=O)c1ncn2c1Cn1ncnc1-c1cc(Cl)ccc1-2 | -38% | 12 | 11 | 8 | 2.6 nM | –
FC(F)c1ncn2c1Cn1ncnc1-c1cc(Cl)ccc1-2 | -18% | – | – | – | – | Papp [6]: 6.3 ×10⁻⁶ cm/s; Ki [7]: 53 nM; Ki [8]: 48 nM; Efficacy [9]: 2%; Ki [10]: 81 nM; bioavailability [11]: 87%; Ki [12]: 5.6 nM; clearance [13]: 3.8 mL/min/kg; logD [14]: 2; Efficacy [15]: 21%; solubility [16]: 58 µg/mL (≈ 189 µM); half-life [17]: 54 min; Vd [18]: 0.3 L/kg; Efficacy [19]: -20%
CCOC(=O)c1ncn2c1Cn1ncnc1-c1cc(F)ccc1-2 | -16% | 1 | – | 1 | 0.2 nM | Ratio [3]: 1
